According to the Biogen ADME set (Fang et al. 2023):
Converted amounts (≈) assume the structure as drawn.

Conditions: for aqueous solubility: pH 6.8

SMILES | intrinsic clearance, human liver microsomes [mL/min/kg] | intrinsic clearance, rat liver microsomes [mL/min/kg] | aqueous solubility [µg/mL] | MDR1-MDCK efflux ratio | fraction unbound, human plasma | fraction unbound, rat plasma
O=C1C(N2CCC(n3c(=O)[nH]c4ccccc43)CC2)CCN1c1ccccc1 (stereo not given) | 4.86 | 139 | 62 (≈ 165 µM) |  |  | 
c1cnc(NCc2cccc3cnccc23)nc1 | 60.5 | 178 |  |  |  | 
Cc1nonc1C(=O)Nc1cccnc1N(C)C | 16.6 | 173 |  |  |  | 
Cc1cc(CNc2ncc(C(F)(F)F)cc2Cl)no1 | 64.6 | 128 | 26.8 (≈ 92 µM) | 0.601 |  | 
O=c1oc2cccnc2n1Cc1ncc(-c2ccc(F)cc2)o1 | ≤ 4.74 | ≤ 10.7 |  | 2.86 |  | 
Cn1nccc1C(=O)NCCc1cc2nc(-c3cccs3)ccn2n1 | 67.5 | 565 |  |  |  | 
Nc1nccc2ccc(-c3cccc(F)c3)cc12 | 209 | 790 | 3 (≈ 12.6 µM) |  |  | 
O=C(CC1CCCC1)NCc1ccncc1 |  |  | 58 (≈ 266 µM) |  |  | 
Cn1cc(-c2nnc(NCc3ccc4ccccc4c3)o2)cn1 | 7.14 | 46.3 | 11.2 (≈ 36.8 µM) | 0.701 |  | 
COc1ccc([C@H]2CN(C(C)=O)[C@@H]3CCCN(Cc4cccc(F)c4)[C@H]23)cc1 | 176 | 1970 | 45 (≈ 118 µM) | 1.35 | 0.0394 | 0.0393
CCCCOc1ccccc1-c1cc(C(=O)NCc2ccccc2C)[nH]n1 |  |  | 0.26 (≈ 0.715 µM) | 0.682 |  | 
Cc1cccc(Cl)c1-n1c(C)n[nH]c1=O |  |  | 16.1 (≈ 72.1 µM) |  |  | 
Nc1cnn(CC(=O)N2CCCCC2)c1 | ≤ 4.74 | ≤ 10.7 | 36.4 (≈ 175 µM) |  |  | 
CC(C)c1cc(N(C)Cc2nc(C3CC3)n[nH]2)n[nH]1 | ≤ 4.74 | 36.7 |  | 16.1 |  | 
COc1nc2c(cc1CNC(=O)N1CC[C@@H](O)C1)C(=O)N(C1CCCC1)C2 | ≤ 4.74 | ≤ 10.7 |  | 32 |  | 
CN(C)[C@@H]1CN(C(=O)c2cc3ccc(F)cc3[nH]2)C[C@H]1O | ≤ 4.74 | 121 | 55.1 (≈ 189 µM) | 4.4 |  | 
Cc1cc(C)c2c(c1)CCCN2C(=O)c1ccc(-c2nnc(C)o2)cc1 | 149 | 2090 | 52.2 (≈ 150 µM) | 0.685 |  | 

SMILES | intrinsic clearance, human liver microsomes [mL/min/kg] | intrinsic clearance, rat liver microsomes [mL/min/kg] | aqueous solubility [µg/mL] | MDR1-MDCK efflux ratio | fraction unbound, human plasma | fraction unbound, rat plasma
COc1cc(C)nc(N2CCN(c3ccc4ccccc4n3)CC2)n1 | 36.2 | 643 |  |  |  | 
CN1CCc2ccc(C(=O)NCCC(=O)Nc3cccnc3)cc21 | 6.19 | 86.6 |  | 43.4 |  | 
Cc1cn(-c2cc(NC(=O)c3ccc(C)c(Nc4nccc(-c5cccnc5)n4)c3)cc(C(F)(F)F)c2)cn1 |  |  |  | 8.9 |  | 
O=C(Cc1n[nH]c2ccccc12)N1CCCO1 | ≤ 4.74 | 31.6 |  | 0.958 |  | 
CC1(COc2ccc3c(c2)ncn3-c2ccc3cccc(N4CCC(N)CC4)c3n2)COC1 | 57.1 | 196 | 32.8 (≈ 74 µM) |  |  | 
Cc1ccccc1S(=O)(=O)Nc1c(C)ccnc1Cl | ≤ 4.74 | 194 |  | 0.795 |  | 
CCN(c1cc(-c2ccc(CN3CCOCC3)cc2)cc(C(=O)NCc2c(C)cc(C)nc2O)c1C)C1CCOCC1 | 131 | 525 | 49.2 (≈ 85.9 µM) | 60.3 |  | 
O=C(NCCCn1ccnc1)N1CCC12CCC2 | ≤ 4.74 | 27.8 | 41.1 (≈ 166 µM) | 30.5 |  | 
COc1ncnc(C)c1-c1cccc(OC(C)C)c1 | 63.5 | 1060 |  | 0.634 |  | 
Cc1ccc2oc([C@H]3CCN(Cc4ccc(C#N)cc4)C3)nc2c1 | 41.5 | 351 | 5.4 (≈ 17 µM) |  |  | 
c1cn2cc(-c3ccc4cn[nH]c4c3)nc(Nc3ccc(N4CCOCC4)cc3)c2n1 |  |  | 0.1 (≈ 0.243 µM) |  |  | 
Cc1ccc2[nH]c(CNC(=O)c3ncoc3C)nc2c1C | 13.6 | 244 |  | 2.39 |  | 
CCn1nccc1CNc1nnc(-c2ccc(OC)cc2)o1 | 6.62 | 76.2 | 27.1 (≈ 90.6 µM) | 1.89 |  | 
Cc1ccc(CNC(=O)c2cccnc2)n1C | ≤ 4.74 | ≤ 10.7 | 40.6 (≈ 177 µM) | 0.67 |  | 
COc1ccc(C(=O)c2ccccc2)c(Oc2nc3c(c(=O)n(C)c(=O)n3C)n2C)c1 | 21.5 | 1510 | 49.3 (≈ 117 µM) | 1.83 |  | 
Clc1ccc(CSc2nc(-c3ccccc3)cs2)cn1 | 221 | 2260 |  |  |  | 

More lines, now with the values ahead:

intrinsic clearance, human liver microsomes [mL/min/kg] | intrinsic clearance, rat liver microsomes [mL/min/kg] | aqueous solubility [µg/mL] | MDR1-MDCK efflux ratio | fraction unbound, human plasma | fraction unbound, rat plasma | SMILES
7.01 | 124 | 51.4 (≈ 127 µM) | 28.4 |  |  | CCOC(=O)Nc1cc(-c2ccc(C)c(NS(C)(=O)=O)c2)nn2c(C)nnc12
25.2 | 230 | 42.5 (≈ 141 µM) | 1.71 |  |  | Cn1cc(CCNC(=O)N2CCCc3c(F)cccc32)cn1
237 | 556 |  | 0.559 |  |  | CCOc1cccc(-c2cccc(N)n2)c1
63.7 | 400 |  | 48.1 | 0.19 | 0.223 | O=C1CCCC[C@@H]2[C@H](C[C@@H](Cc3ccccc3F)N2C(=O)c2cccc3ncccc23)N1
40.9 | 680 | 44.4 (≈ 100 µM) | 51.9 |  |  | NS(=O)(=O)OC[C@@H]1C[C@@H](n2ccc3c(N[C@H]4CCc5ccccc54)ncnc32)C[C@@H]1O
7.42 | 724 |  |  |  |  | Cc1nc(Cn2nnnc2C(C)(C)C)nc2ccccc12
8.53 | 348 | 49.2 (≈ 164 µM) | 29.4 |  |  | CCc1nc2ccccc2n1CC(=O)Nc1ncc(C)s1
310 | 2720 | 49 (≈ 166 µM) | 0.732 |  |  | Cc1ccccc1-c1nc(Cn2ccnc2C(C)C)c(C)o1
≤ 4.74 | 440 |  | 8.91 |  |  | CSc1ccccc1S(=O)(=O)NC1CCC(CN(C)C)CC1 (stereo not given)
21.6 | 75.5 |  | 1.22 |  |  | COc1ccc(-c2cc(C(C)(C)C)nc(-c3ncccn3)n2)cc1
≤ 4.74 | 61.4 | 23.4 (≈ 107 µM) | 0.657 |  |  | Nc1nnc(-c2ccc3c(c2)OCCO3)o1
≤ 4.74 | 742 |  | 133 |  |  | CC(=O)c1ccccc1-c1cccc(C(=O)NCCCN2CCCC2)c1
39.6 | 793 | 31.6 (≈ 152 µM) | 0.617 |  |  | Cc1cc(NC(=O)c2cccs2)no1
12.5 | 114 |  | 1.74 |  |  | OCCN1CCN(c2ccnc3ccc(Br)cc23)CC1
≤ 4.74 | 35.1 |  |  |  |  | CCCNC(=O)c1ccc(OC2CCN(C)CC2)cc1
123 | 1540 |  |  |  |  | Cc1ccc(OCCCC(=O)N2CCC(n3c(=O)[nH]c4ccccc43)CC2)cc1
94.9 | 1180 | 33.6 (≈ 124 µM) | 0.641 |  |  | CN(Cc1cscn1)c1nc2c(cc1C#N)CCC2
7.96 | 227 | 78 (≈ 185 µM) | 22.6 |  |  | CCN(CC)Cc1ccc2cc(COC(=O)Nc3ccc(C(=O)NO)cc3)ccc2c1
39.6 | 1750 |  | 0.841 |  |  | CSc1ccc(C)c(C(=O)NCCN2CCC(C)CC2)c1
≤ 4.74 | ≤ 10.7 |  | 47.5 |  |  | COc1cc(CN2C[C@H]3CCc4c(nc(C)[nH]c4=O)[C@H]3C2)cc(OC)c1OC
 |  | 27 (≈ 100 µM) |  |  |  | CCn1nccc1-c1n[nH]c(=O)n1Cc1ccccc1
192 | 1400 |  | 0.953 |  |  | Cc1noc(C)c1CS(=O)(=O)C1CCCc2ccccc21 (stereo not given)
337 | 1800 | 43.7 (≈ 104 µM) | 9.92 |  |  | CCN(CC)S(=O)(=O)c1ccc2c(c1)CCN2CC(=O)NCc1ccccc1F
21.5 | 264 | 46.2 (≈ 146 µM) | 0.795 |  |  | CC(=O)N1CCC(CCNc2ccc3ccc(F)cc3n2)CC1
65.5 | 267 | 37.8 (≈ 149 µM) |  |  |  | N#CCN1CCCN(Cc2ccc(C#N)cc2)CC1
453 | 1060 |  | 1.75 |  |  | COc1ccc(Cl)cc1NC(=O)CN1CCCN(c2ccc(C(F)(F)F)cn2)CC1
 |  | 0.2 (≈ 0.531 µM) | 1.75 |  |  | COc1ccccc1N1CCN(c2nc(-c3ccc(C)cc3)cc(=O)[nH]2)CC1
